“And” between values parts separate entries of the source, which are not always exact repeats. Equal entries are not always repeated.
Each molecule was assayed on P. falciparum 3D7 growth, pLDH absorbance (assay: blood-stage malaria parasite growth potency – strain 3D7, dose response (AID 2305)).
COc1cc2nc(NCc3ccc(S(N)(=O)=O)cc3)nc(Nc3ccc(Oc4ccccc4)cc3)c2cc1OC was tested, and the IC50 was 440 nM.
Cc1c(-c2ccc3c(c2)C(NCCCN2CCCCC2)CC3)cnc(N)c1C (stereo unspecified) showed an IC50 of 1110 nM.
For O=C(Nc1ccc(-c2cccc(-c3nc4ccccc4[nH]3)c2)cc1)c1cnn2cccnc12, the IC50 was 600 nM.
Cc1cc(C(=O)Nc2ccc3c(c2)CCN3C2CCN(Cc3ccc4nsnc4c3)C2)no1 (stereo unspecified) gave an IC50 of 640 nM.
Work on COc1ccc(Nc2nccc(N3CCC(NC(=O)Nc4cccc(C(C)=O)c4)C3)n2)cc1 (stereo unspecified) yielded an IC50 of 820 nM.
O=C(Nc1cccc(CN2CCCN(Cc3ncc[nH]3)CC2)c1)c1ccc(Cl)c(Cl)c1 was tested, and the IC50 was 800 nM.
Oc1ccc2c(CNC3CCCCC3)c(O)ccc2c1CNC1CCCCC1 showed an IC50 of 40 nM.
FC(F)(F)c1cnc(Sc2nnc(-c3ccncc3)o2)c(Cl)c1 gave an IC50 of 270 nM.
With O=C(CC1NC(=O)c2ccccc21)Nc1ccc(-c2cccc(-c3nc4ccc(C(F)(F)F)cc4[nH]3)c2)cc1 (stereo unspecified) the IC50 was 960 nM.
COc1ccc(-c2nc(NCc3ccccc3)c3cc(OC)c(OC)cc3n2)cc1 was tested, and the IC50 was 400 nM.
Molecule CCOc1cc(O)c(-c2nc(N)ncc2-c2ccc3c(c2)OCCO3)cc1CC has an IC50 of 730 nM.
With c1ccc(CNCc2cccc(-c3cccc(-c4nc5ccccc5[nH]4)c3)c2)cc1 the IC50 was 570 nM.
CCN(CCCN1CCCCC1)c1cc(C)nc(Nc2ccc(C)c(Cl)c2)n1 gave an IC50 of 210 nM.
Work on Cc1[nH]c(C)c(-c2ccc(OCCSc3ccncc3)cc2)c(=O)c1Br yielded an IC50 of 390 nM.
Work on CCOC(=O)c1cc2c(CCN3C(=O)c4ccccc4C3=O)cn(C)c2cc1-c1ccncc1 yielded an IC50 of 580 nM.
In the case of Nc1nonc1-c1nc2c(-c3cccc(Cl)c3)nccc2n1CCCNC(=O)Cc1ccc(Cl)cc1, the IC50 is reported as 270 nM.
With CN(Cc1cccc(C#N)c1)C1CCN(c2cc(NC(=O)c3ccc(F)cc3)ccn2)CC1 the IC50 was 1070 nM.
O=C(/C=C/c1cccc(Br)c1)NCCCCCN1CCC(c2c[nH]c3ccccc23)CC1 showed an IC50 of 630 nM.
For COc1ccc2ncc(F)c(CCN3CCC(NCc4cc(F)c5c(c4)OCCO5)CC3)c2n1, the IC50 was 350 nM.
O=C(NC(=S)NCc1ccncc1)c1ccccc1 was tested, and the IC50 was 1690 nM.
For CC[C@]1(C)C[C@@H](NC(=O)NC(=O)c2ccc(OC)cc2)[C@]2(C)[C@H](C)CC[C@]3(CCC(=O)[C@H]32)[C@@H](C)[C@@H]1OC(=O)NC(=O)c1ccc(OC)cc1, the IC50 was 990 nM.
NC(N)=Nc1nc(-c2cccc(NC(=O)NCC(c3ccccc3)c3ccccc3)c2)cs1 gave an IC50 of 790 nM.
Molecule COc1cc(C(C)C)nc2ccc(NC(=O)c3ccc(C(=O)Nc4ccc5nc(C(C)C)cc(OC)c5c4)cc3)cc12 has an IC50 of 580 nM.
In the case of O=C(Nc1ccc(C(F)(F)F)cc1)c1cccc(S(=O)(=O)NCC2CCCN(CC3CCCCC3)C2)c1 (stereo unspecified), the IC50 is reported as 750 nM.
COc1ccc2ncc(F)c(NC(=O)C3CCC(NCc4cc5c(F)cccc5[nH]4)CC3)c2n1 (stereo unspecified) was tested, and the IC50 was 1090 nM.
O=C(Nc1ccc(-c2cccc(-c3nc4ccccc4[nH]3)c2)cc1)Nc1ccc(F)c(F)c1F showed an IC50 of 180 nM.
In the case of COc1ccc(C2C(C(=O)Nc3ccc4c(c3)OCO4)c3cc(OC)c(OC)cc3C(=O)N2C)cc1 (stereo unspecified), the IC50 is reported as 1040 nM.
Work on Cc1cc2nc(-c3ccc(/C=C/C(=O)NCCCc4ccccc4)cc3)[nH]c2cc1C yielded an IC50 of 960 nM.
With Cn1c(NC2=NC3(c4ccccn4)N=C(Nc4nc5ccccc5n4C)NC3(c3ccccn3)N2)nc2ccccc21 (stereo unspecified) the IC50 was 1040 nM.
With O=C(Nc1ccc(Cl)cc1)Nc1nc2ccc([N+](=O)[O-])cc2[nH]1 the IC50 was 800 nM.
Cc1c(Cl)cccc1S(=O)(=O)Nc1ccc(CCN2CCC(N)CC2)cc1 was tested, and the IC50 was 1460 nM.
CCCCC1=CC2C(=O)C(C(=O)OC)=CN=C2C=C1OCc1ccccc1 (stereo unspecified) was tested, and the IC50 was 40 nM.
COc1cc(Cc2c(C)nc3nc(N)nc(N)c3c2C)c(Br)c(OC)c1OC was tested, and the IC50 was 400 nM.
Molecule NCc1cccc(-c2cccc(CN(C(=O)Nc3ccccc3)C3CCN(Cc4ccccc4)CC3)c2)c1 has an IC50 of 830 nM.
With CC(C)(C)c1ccc(CNCCOc2ccc(Nc3nnc(-c4ccc(-c5ncc[nH]5)cc4)o3)c3ccccc23)cc1 the IC50 was 140 nM.
In the case of COc1cc(N)c(Cl)cc1C(=O)NCC1CCN(c2nc(C)cc(C)n2)CC1, the IC50 is reported as 510 nM.
With COc1ccc(NC(=O)[C@H](Cc2ccccc2)Nc2cc(C)nc(NCCN3CCCC3)n2)cc1 the IC50 was 1390 nM.
Cc1ccc(C[C@@H](C)NC[C@H](O)c2cccc(C(F)(F)F)c2)cc1 was tested, and the IC50 was 880 nM and 710 nM.
Molecule COc1cc2nc(N3CCC(CNC(=O)/C=C/c4cccc(C)c4)CC3)nc(N)c2cc1OC has an IC50 of 680 nM.
For COc1ccc2nccc([C@@H](O)CN3CCC(NC(=O)c4ccc(CN5CCN(c6cccc(C)c6)CC5C)cc4)CC3)c2c1 (stereo partly specified), the IC50 was 210 nM.
In the case of COc1ccc(CN2CCC(CNCc3cccc(-c4ccccc4)c3)CC2)cc1, the IC50 is reported as 240 nM.
With FC(F)(F)c1cccc(C=NNc2nc3ccccc3[nH]2)c1 the IC50 was 150 nM.
Cc1cc(O)c2c3c1C(=O)C=C1C3c3c(c(O)cc(O)c3C(=O)C1(C)C)C2=O (stereo unspecified) was tested, and the IC50 was 1680 nM.
FC(F)(F)c1cccc(CNCC2CCN(Cc3ccc4c(c3)OCO4)CC2)c1 was tested, and the IC50 was 730 nM.
COc1cc(Cc2cnc(N)nc2N)cc(CC(C)O)c1O (stereo unspecified) showed an IC50 of 840 nM.
With C#CCOc1ccccc1CN1CCC(N2CCc3cc(NC(=O)c4cc(C)on4)ccc32)C1 (stereo unspecified) the IC50 was 680 nM.
For O=C(NCC1CCN(Cc2cccc(C(F)(F)F)c2)C1)c1cc(-c2cccc(Cl)c2)cs1 (stereo unspecified), the IC50 was 800 nM.
Work on CC(C)c1ccc(C2CCN(CCCCNC(=O)c3ccc(NC(=O)c4ccc(C(F)(F)F)cc4)cc3)CC2)c(O)c1 yielded an IC50 of 580 nM.
Molecule O=S(=O)(c1ccccc1C(F)(F)F)C1C[C@H]2CC[C@@H](C1)N2S(=O)(=O)c1ccc(Cl)c(C(F)(F)F)c1 (stereo partly specified) has an IC50 of 710 nM.
O=C(/C=C/c1ccc(Cl)c(Cl)c1)NCCCCCN1CC[C@H](c2c[nH]c3ccccc23)[C@H](O)C1 showed an IC50 of 820 nM.
With COc1cc(C=CC(=O)N2CCC(CN3CCC(c4c[nH]c5ccccc45)CC3)CC2)cc(OC)c1 the IC50 was 800 nM.
Cn1nc(-c2ccc(S(=O)(=O)N3CCC(CN4CCC(c5c[nH]c6ccccc56)CC4)CC3)s2)cc1C(F)(F)F showed an IC50 of 1090 nM.
O=C(Nc1ccc(F)cc1F)NC1CCN(c2ccnc3cc(Cl)ccc23)C1 (stereo unspecified) showed an IC50 of 250 nM.
CC(=O)c1ccc2nc[nH]c(=O)c2c1 showed an IC50 of 720 nM.
Cc1[nH]c(C)c(-c2ccc(-c3ccccc3F)nc2)c(=O)c1Cl was tested, and the IC50 was 250 nM.
Work on COc1ccccc1C1CN(Cc2coc3ccccc3c2=O)Cc2ccccc2O1 (stereo unspecified) yielded an IC50 of 1320 nM.
Work on Fc1ccc2nc(-c3ccc(-c4cccc(CN5CCC(CCN6CCCCC6)CC5)c4)cc3)[nH]c2c1 yielded an IC50 of 140 nM.
In the case of N#Cc1ccc(N(CC(=O)NCCc2ccccc2)CC2CC2)c2ccccc12, the IC50 is reported as 730 nM.
With CC1CCN(CCNC(=O)c2ccc3c(=O)n(Cc4ccc(Cl)cc4)c(=S)[nH]c3c2)CC1 the IC50 was 700 nM.
With O=C(Nc1ccc(Cl)cc1)c1ccc(CN2CCCN(Cc3ccc(F)cc3)CC2)cc1 the IC50 was 970 nM.
O=[N+]([O-])c1cccc(-c2nc(-c3ccc(Br)cc3)[nH]c2-c2ccc(Br)cc2)c1 gave an IC50 of 760 nM.
O=C(Nc1ccc(OC2CCN(Cc3ccsc3)C2)c(Cl)c1)c1ccco1 (stereo unspecified) showed an IC50 of 600 nM.
Molecule Cc1c(-c2cccc(C(C)(C)NC3CCN(Cc4ccccc4)CC3)c2)cnc(N)c1C has an IC50 of 580 nM.
COc1ccc(C2N=C(N)N=C(N)N2OCc2ccccc2)cc1OC (stereo unspecified) was tested, and the IC50 was 130 nM.
N#CC(c1ccc(F)cc1)c1ccc2c(C(F)(F)F)cc(C(F)(F)F)nc2n1 (stereo unspecified) gave an IC50 of 730 nM.
CN1CCCN(Cc2ccc(-c3ccc(NS(=O)(=O)c4cccc5cccnc45)cc3)cc2)CC1 was tested, and the IC50 was 690 nM.
CCc1cc(I)c2c(c1)C(NCCCNc1cc(=O)c3ccccc3[nH]1)CCN2 (stereo unspecified) showed an IC50 of 890 nM.
Cc1ccc2nc(C)cc(NN=Cc3cccc([N+](=O)[O-])c3)c2c1 gave an IC50 of 880 nM.
With N#Cc1c(Cl)cccc1Oc1ccc(S(=O)(=O)NC2CCC(CN3CCC(c4c[nH]c5ccccc45)CC3)CC2)cc1 (stereo unspecified) the IC50 was 710 nM and 1070 nM.
For COc1ccccc1CNC(=O)c1cc(Br)cc(N2CCN(c3ccncc3)CC2)c1, the IC50 was 950 nM.
Work on CCc1ccc(-n2cc(C(=O)c3cc(Br)ccc3O)cc(C#N)c2=O)cc1 yielded an IC50 of 800 nM.
COc1cccc2cc(C(=O)N[C@@H](CC(C)C)C(=O)N[C@H](/C=N/NC(=O)OC(C)(C)C)Cc3ccccc3)oc12 showed an IC50 of 300 nM.
O=C(COc1ccc(F)cc1)NC1CCN(c2ccnc3cc(Cl)ccc23)C1 (stereo unspecified) showed an IC50 of 270 nM.
For COc1cccc(C2CCN(CCCCNC(=O)c3ccc(NC(=O)c4ccc(Cl)cc4)cc3)CC2)c1, the IC50 was 960 nM.
In the case of Cc1ccc(NC(=O)c2ccc(C(=O)NC3CCN(CC4CCCCC4)CC3)cc2)cc1, the IC50 is reported as 900 nM.
Work on CCN(CC)CC#Cc1ccc2[nH]c(C)c(Cl)c(=O)c2c1 yielded an IC50 of 700 nM.
Nc1nc(N)c2c(ccc3[nH]c(-c4ccccc4Cl)nc32)n1 showed an IC50 of 230 nM.
With O=S(=O)(Nc1cccc(CCN2CCC(N3CCCCC3)CC2)c1)c1cccc2ccccc12 the IC50 was 940 nM.
COc1ccccc1N1CCN(CCCCNC(=O)c2ccc(NC(=O)c3cc4ccccc4o3)cc2)CC1 gave an IC50 of 980 nM.
Work on Cn1ccnc1CNC(=O)c1ccc(-c2ccc(-c3nc4ccc(C(F)(F)F)cc4[nH]3)s2)cc1 yielded an IC50 of 700 nM.
Molecule COCCSc1nc2scc(C)c2c(=O)n1Cc1cccc(OC)c1 has an IC50 of 910 nM.
O=C(NCc1ccc(C(=O)NC2CCCCC2)cc1)c1ccc(O)c(-c2ccc(Cl)c(Cl)c2)c1 showed an IC50 of 880 nM.
With CCOC(=O)c1ccc(N(CCCN(CCCN(c2ccc(C(=O)OCC)cc2)S(=O)(=O)c2ccc(C)cc2)CCc2ccc(O)cc2)S(=O)(=O)c2ccc(C)cc2)cc1 the IC50 was 1050 nM.
O=[N+]([O-])c1ccc(/C=N/Nc2cc(-c3ccccc3)nc3ccccc23)o1 gave an IC50 of 860 nM.
Work on CN(C)CCCOc1ccc(CNCC(C)(C)c2nc(-c3ccc(Cl)c(O)c3)c(-c3ccncc3)[nH]2)cc1 yielded an IC50 of 710 nM.
With Cc1cc(N[C@@H](Cc2ccccc2)C(=O)NCc2cccc(F)c2)nc(NCCc2ccccc2)n1 the IC50 was 1020 nM.
Cc1nc(C)c(CC(=O)Nc2ccc(-c3cccc(-c4nc5ccc(C(F)(F)F)cc5[nH]4)c3)cc2)s1 gave an IC50 of 920 nM.
CCCN1CCN(c2cc(S(=O)(=O)Nc3ccc(C(=O)NCc4cccc(C(F)(F)F)c4)cc3)ccc2OC)CC1 showed an IC50 of 1010 nM.
Molecule CCCNCc1ccc(-c2ccc(CN(CCOC)C(=O)Cc3cccnc3)cc2)nc1 has an IC50 of 820 nM.
With Cc1ccc(CCC(C)NCC(O)c2cccc(C(F)(F)F)c2)cc1 (stereo unspecified) the IC50 was 560 nM.
CN(CCN)Cc1cccc(-c2ccc(-c3nc4ccc(C(F)(F)F)cc4[nH]3)s2)c1 was tested, and the IC50 was 1000 nM.
With CCCN(CCC)C(=O)c1cc(-c2cccc(C)c2)nc2ccccc12 the IC50 was 1060 nM.
In the case of O=C(/C=C/c1ccc([N+](=O)[O-])cc1)N1CCC(NS(=O)(=O)c2ccc(F)cc2)CC1, the IC50 is reported as 820 nM.
Molecule COc1ccc(-c2ccc(NC(=O)c3ccc(C#N)cc3)cc2)cc1CNC(C)C has an IC50 of 530 nM.
Work on CNC(=O)c1[nH]c(-c2ccccc2)nc1NC(C)=O yielded an IC50 of 150 nM.
Cc1cccc2[nH]c(-c3cccc(-c4ccc(NC(=O)Nc5ccc(F)c(F)c5F)cc4)c3)nc12 was tested, and the IC50 was 170 nM.

Reference: PubChem BioAssay AID2305 (GlaxoSmithKline (GSK), 2010)
